Entries after “also recorded” stand apart in the source; their conditions may differ.
Key:
[1] = tested on: mouse satellite cells (MuMa23/P13); experiment: AlamarBlue proliferation assay, primary satellite cells; assay type: cell-based; details: 24 hrs, SERF2 20 and 4 μg/ml
Experimental: FIG. 4: Effect of SERF2 on Proliferation of mouse satellite cells (MuMa23/P13). Proliferation assay was performed essentially as in FIG. 2. Incubation time was 24 hrs, added SERF2 concentrations were 20 and 4 μg/ml, respectively.
Muscle tissue was taken from male ICR mice and minced by using scissors and a scalpel. Following incubation in protease solution (Sigma, St. Lois) for 1 h at 37° C., remaining tissue clumps were dissociated by vigorousely pipetting and loaded onto a Percoll (Pharmacia) gradient (75%, 50%, 30%). After centrifugation for 20 min at 1250×g, cells were collected from the 2nd interphase (99% satellite cells), washed and cultured at a cell density of 1×10^5 cells/ml in 6-well plates. See also Danoviz ewt al. Methods Mol Biol. 2012; 798: 21-52.
Proliferation was measured using the AlamarBlue™ assay according to the manufacturer's protocol. Briefly, 1×10^4 cells were seeded per well containing 100 μl growth medium. Cells were incubated over night at +37° C., 5% v/v CO^2 and humidified atmosphere. Prior performing the assay, viability of cells was checked under the microscope. Usually cells reached 60% confluence. Cells were washed three times with 100 μl DPBS per well. […] Fluorescence (Ex. 570 nm, Em. 585 nm) was measured using a Varioskan Flash multi-plate reader (Thermo Scientific). Data were evaluated using Microsoft Excel and GraphPad Prism V4.

[2] = tested on: chorionallantoic membrane (CAM); experiment: Hen's Egg Test - Chorionallantoic Membrane (HET-CAM) angiogenesis assay; assay type: in vivo, chicken; details: SERF2 3 μg/CAM, VEGF-A 0.5 μg/CAM; treatment on embryonic day 6 and 7; microscopic evaluation, manual count
Experimental: FIG. 12: Proangiogenic effect of SERF2 in CAM assays. To evaluate the pro-angiogenic properties of SERF2, 3 μg of A: PBS and C: SERF2 was applied per CAM. B: VEGF-A (0.5 μg/CAM) was used as positive control, PBS served as a negative control. […] Treatment was performed on embryonic day 6 and 7. Angiogenic responses were evaluated microscopically. Pictures shown were taken for documentation on day 6.
Fertilized specific-pathogen free eggs (White Leghorn) were obtained from BAXTER Biosciences (Vienna, Austria) on embryonic day 5 (E5). Eggs were disinfected on the surface using a towel soaked with Microzid (Schlilke, Austria). A tiny hole was drilled and 3 ml albumen were removed using a syringe equipped with a 18 G needle. Subsequently, the hole was covered with paraffin. To open the eggs, another hole was drilled on top. The egg shell was removed in this area using a pair of tweezers. […] Angiogenic potential of tested peptides was evaluated microscopically at the end of the experiment.
The HET-CAM assay enables the assessment of the angiogenic potential of substrates or cells. A suitable VEGF concentration was determined, which can be used as positive control. […] Angiogenic response was determined on Ell by light microscopy.
To evaluate the pro-angiogenic properties of SERF2, the protein was subjected to Het-CAM assay. […] Angiogenic responses were evaluated microscopically on E7 as well as on E8. […]

[3] = tested on: human epithelial cell line (MCF-7); experiment: H2O2-induced apoptosis, trypan-blue staining, MCF-7; assay type: cell-based; details: 200 mM H2O2, SERF2 5 μg/ml, 6 hours, serum-free
Experimental: (§1) Experiments were performed in 6-well plates containing 5 ml cell culture medium (serum-free) per well and were seeded at a cell density of 1*10^6 cells/well and cultured overnight. On the next day 200 mM H2O2 or 200 mM H2O2 and SERF2 (5 μg/ml) was added to cultures. After 6 hours of incubation, the adherent cells were harvested, washed 3 times in PBS and dead cells were detected by trypan-blue staining using light microscopy. Shown is the percentage of dead cells.
(§2) Trypan Blue staining is one of the most commonly used methods to determine the cell viability using light microscopy. Trypan blue can only stain cells if their membrane is damaged.
(§3) The question was asked whether SERF2 has an effect on growth factor deprivation- or stress-induced apoptosis. The experimental protocol included addition of Hydrogen peroxide (H2O2), which is known to cause cellular stress and consequently apoptotic death in doses below 200 μM (Cox A., Carcinogenesis. 2007, Vol. 28, 10). Furthermore apoptosis was induced by deprivation of granulocyte macrophage colony-stimulating factor (GM-CSF) in cultures of TF-1 cells. These cells are dependent on the presence of a growth factor which is absolutely necessary for growth and differentiation of TF-1 cells.

[4] = tested on: human T-cell line (Jurkat); experiment: H2O2-induced apoptosis, trypan-blue staining, Jurkat; assay type: cell-based; details: 200 mM H2O2, SERF2 5 μg/ml, 6 hours, serum-free
Experimental: as §1, with “mM H2O2 (red bar) or 200” for “mM H2O2 or 200”, “and SERF2 (green bar; 5 μg/ml) was” for “and SERF2 (5 μg/ml) was”
as §2, §3

Substance: SERF2: Small EDRK-rich factor 2, mature protein of 59 amino acids (SEQ ID NO: 1) (MTRGNQRELARQKNMKKQSDSVKGKRRDDGLSAAARKQRDSEIMQQKQKKANEKKEEPK; homo sapiens)
- proliferative effect on mouse satellite cells [1]: proliferative effect in a dose-dependent manner
- angiogenic response (newly formed vessels) in CAM [2]: pro-angiogenic response; also recorded: New vessels were identified
- protection from H2O2-induced apoptosis (percentage of dead cells), MCF-7 [3]: markedly reduced apoptosis; also recorded: protects a human epithelial cell line (MCF-7) from H2O2-induced apoptosis
- protection from H2O2-induced apoptosis (percentage of dead cells), Jurkat [4]: markedly reduced apoptosis; also recorded: protects a human T-cell line (Jurkat) from H2O2-induced apoptosis

Source: US9637529B2, “Medicament for atrophy treatment or increasing cell growth” (SIMU TRADE CONSULTING GMBH & CO. LEASING KG, priority 2012, dated 2017)
